Results reported in article PMC8880564, “Design, Synthesis, and Biological Evaluation of a Novel VEGFR-2 Inhibitor Based on a 1,2,5-Oxadiazole-2-Oxide Scaffold with MAPK Signaling Pathway Inhibition” (Pharmaceuticals, 2022).

Assays:
Experiment in all cases: NCI-60 one-dose SRB screening
Type in all cases: cell-based
[1] = system: BT-549; conditions: Homo sapiens, BT-549, Breast Cancer, 10 µM one dose, 48 h, read-out: growth percentage
[2] = system: CAKI-1; conditions: Homo sapiens, CAKI-1, Renal Cancer, 10 µM one dose, 48 h, read-out: growth percentage
[3] = system: COLO 205; conditions: Homo sapiens, COLO 205, Colon Cancer, 10 µM one dose, 48 h, read-out: growth percentage
[4] = system: HCC-2998; conditions: Homo sapiens, HCC-2998, Colon Cancer, 10 µM one dose, 48 h, read-out: growth percentage
[5] = system: HOP-62; conditions: Homo sapiens, HOP-62, Non-Small Cell Lung Cancer, 10 µM one dose, 48 h, read-out: growth percentage
[6] = system: M14; conditions: Homo sapiens, M14, Melanoma, 10 µM one dose, 48 h, read-out: growth percentage
[7] = system: MDA-MB-435; conditions: Homo sapiens, MDA-MB-435, Melanoma, 10 µM one dose, 48 h, read-out: growth percentage
[8] = system: MOLT-4; conditions: Homo sapiens, MOLT-4, Leukemia, 10 µM one dose, 48 h, read-out: growth percentage
[9] = system: NCI-H522; conditions: Homo sapiens, NCI-H522, Non-Small Cell Lung Cancer, 10 µM one dose, 48 h, read-out: growth percentage
[10] = system: NCI/ADR-RES; conditions: Homo sapiens, Ovarian Cancer, 10 µM one dose, 48 h, read-out: growth percentage
[11] = system: OVCAR-3; conditions: Homo sapiens, OVCAR-3, Ovarian Cancer, 10 µM one dose, 48 h, read-out: growth percentage
[12] = system: OVCAR-4; conditions: Homo sapiens, OVCAR-4, Ovarian Cancer, 10 µM one dose, 48 h, read-out: growth percentage
[13] = system: PC-3; conditions: Homo sapiens, PC-3, Prostate Cancer, 10 µM one dose, 48 h, read-out: growth percentage
[14] = system: RPMI-8226; conditions: Homo sapiens, RPMI-8226, Leukemia, 10 µM one dose, 48 h, read-out: growth percentage
[15] = system: SF-268; conditions: Homo sapiens, SF-268, CNS Cancer, 10 µM one dose, 48 h, read-out: growth percentage
[16] = system: SF-295; conditions: Homo sapiens, SF-295, CNS Cancer, 10 µM one dose, 48 h, read-out: growth percentage
[17] = system: SK-MEL-2; conditions: Homo sapiens, SK-MEL-2, Melanoma, 10 µM one dose, 48 h, read-out: growth percentage
[18] = system: SNB-19; conditions: Homo sapiens, SNB-19, CNS Cancer, 10 µM one dose, 48 h, read-out: growth percentage
[19] = system: SW-620; conditions: Homo sapiens, SW-620, Colon Cancer, 10 µM one dose, 48 h, read-out: growth percentage
[20] = system: U251; conditions: Homo sapiens, U-251, U251, CNS Cancer, 10 µM one dose, 48 h, read-out: growth percentage
[21] = system: UACC-257; conditions: Homo sapiens, UACC-257, Melanoma, 10 µM one dose, 48 h, read-out: growth percentage
[22] = system: UACC-62; conditions: Homo sapiens, UACC-62, Melanoma, 10 µM one dose, 48 h, read-out: growth percentage

Cc1nn(-c2ccc(Br)cc2)c2nc(CNc3ccc(NCc4c(-c5ccccc5)no[n+]4[O-])cc3)[nH]c(=O)c12 [14c, 3-(((4-(((1-(4-bromophenyl)-3-methyl-4-oxo-4,5-dihydro-1H-pyrazolo[3,4-d]pyrimidin-6-yl)methyl)amino)phenyl)amino)methyl)-4-phenyl-1,2,5-oxadiazole 2-oxide]
activity at 10 µM [1]: 98.1%
activity at 10 µM [2]: 90.2%
activity at 10 µM [3]: 115%
activity at 10 µM [4]: 112%
activity at 10 µM [5]: 116%
activity at 10 µM [6]: 107%
activity at 10 µM [7]: 101%
activity at 10 µM [8]: 87.2%
activity at 10 µM [9]: 90.8%
activity at 10 µM [10]: 101%
activity at 10 µM [11]: 93.9%
activity at 10 µM [12]: 127%
activity at 10 µM [13]: 96.6%
activity at 10 µM [14]: 112%
activity at 10 µM [15]: 95.2%
activity at 10 µM [16]: 115%
activity at 10 µM [17]: 107%
activity at 10 µM [18]: 102%
activity at 10 µM [19]: 111%
activity at 10 µM [20]: 99.1%
activity at 10 µM [21]: 101%
activity at 10 µM [22]: 105%

Cc1nn(-c2ccccc2)c2nc(C(F)(F)F)nc(Nc3ccc(NCc4c(-c5ccccc5)no[n+]4[O-])cc3)c12 [12a, 3-(((4-((3-methyl-1-phenyl-6-(trifluoromethyl)-1H-pyrazolo[3,4-d]pyrimidin-4-yl)amino)phenyl)amino)methyl)-4-phenyl-1,2,5-oxadiazole 2-oxide]
activity at 10 µM [1]: 103%
activity at 10 µM [2]: 53%
activity at 10 µM [3]: 73.6%
activity at 10 µM [4]: 85.6%
activity at 10 µM [5]: 93.1%
activity at 10 µM [6]: 68.7%
activity at 10 µM [7]: 78.7%
activity at 10 µM [8]: 56.4%
activity at 10 µM [9]: 91.4%
activity at 10 µM [10]: 83%
activity at 10 µM [11]: 105%
activity at 10 µM [12]: 70.8%
activity at 10 µM [13]: 45.6%
activity at 10 µM [14]: 83.4%
activity at 10 µM [15]: 68.6%
activity at 10 µM [16]: 76.6%
activity at 10 µM [17]: 106%
activity at 10 µM [18]: 88%
activity at 10 µM [19]: 86%
activity at 10 µM [20]: 69.9%
activity at 10 µM [21]: 103%
activity at 10 µM [22]: 64.9%
